From US11021457B2, “Class of isoindolone-imide ring-1,3-dione-2-ene compounds, composition and use thereof” (WIGEN BIOMEDICINE TECHNOLOGY (SHANGHAI) CO., LTD., priority 2017, dated 2021)

Tests used:
Format in all cases: cell-based
Conditions in all cases: compound concentration 50 μM, 72 hours
K562 = experiment: Inhibition of tumor cell proliferation, CellTiter-Glo, K562
Procedure: (§1) For various cell lines, the corresponding complete medium was used, and culture was carried out in an incubator at 37° C. with 5% CO2. The cells were counted, and inoculated into a 96-well plate at 2000-10000 cells/100 μl per well according to the cell volume and growth rate. The suspended cells were treated immediately, and the adherent cells were treated after adherence. The CellTiter-Glo method was used to detect the changes in cell viability 72 hours after the administration, and the cell survival rate at different concentrations was calculated by a formula: Survival rate (%)=(RLU of treatment well−RLU of blank well)/(RLU of control well−RLU of blank well)×100.
(§2) Method for expressing the inhibitory activity of the compounds against the proliferation of tumor cells: Evaluation was made based on the cell survival rate at a compound concentration of 50 μM. 60≤survival rate (%)<90 is considered to have low inhibitory activity against the proliferation of tumor cells (+); 30<survival rate (%)≤60 is considered to have moderate inhibitory activity against the proliferation of tumor cells (++); and survival rate (%)≤30 is considered to have high inhibitory activity against the proliferation of tumor cells (+++).

BxPC-3 = experiment: Inhibition of tumor cell proliferation, CellTiter-Glo, BxPC-3
Procedure: as §1, §2

MDA-MB-453 = experiment: Inhibition of tumor cell proliferation, CellTiter-Glo, MDA-MB-453
Procedure: as §1, §2

RPMI-8226 = experiment: Inhibition of tumor cell proliferation, CellTiter-Glo, RPMI-8226
Procedure: as §1, §2

A549 = experiment: Inhibition of tumor cell proliferation, CellTiter-Glo, A549
Procedure: as §1, §2

SU-DHL6 = experiment: Inhibition of tumor cell proliferation, CellTiter-Glo, SU-DHL6
Procedure: as §1, §2

Row | Compound | Inhibitory activity against proliferation (cell survival rate) K562 (K562) | Inhibitory activity against proliferation (cell survival rate) BxPC-3 (BxPC-3) | Inhibitory activity against proliferation (cell survival rate) MDA-MB-453 (MDA-MB-453) | Inhibitory activity against proliferation (cell survival rate) RPMI-8226 (RPMI-8226) | Inhibitory activity against proliferation (cell survival rate) A549 (A549) | Inhibitory activity against proliferation (cell survival rate) SU-DHL6 (SU-DHL6) | cell survival rate (%) at 50 µM (K562; Homo sapiens, K562, read-out: Inhibitory activity against proliferation (cell survival rate) K562) [%] | cell survival rate (%) at 50 µM (BxPC-3; Homo sapiens, BXPC-3, read-out: Inhibitory activity against proliferation (cell survival rate) BxPC-3) [%] | cell survival rate (%) at 50 µM (MDA-MB-453; Homo sapiens, MDA-MB-453, read-out: Inhibitory activity against proliferation (cell survival rate) MDA-MB-453) [%] | cell survival rate (% of control) at 50 µM (RPMI-8226; Homo sapiens, RPMI-8226, read-out: Inhibitory activity against proliferation (cell survival rate) RPMI-8226) [%] | cell survival rate (% of control) at 50 µM (A549; Homo sapiens, A549, read-out: Inhibitory activity against proliferation (cell survival rate) A549) [%] | cell survival rate (% of control) at 50 µM (SU-DHL6; Homo sapiens, SU-DHL-6, read-out: Inhibitory activity against proliferation (cell survival rate) SU-DHL6) [%]
1 | O=C1CCC(N2Cc3c(NC=C4C(=O)CC(C(=O)Nc5ccc(Cl)cc5)CC4=O)cccc3C2=O)C(=O)N1 (stereo not drawn) [Compound 135] | ++ (30<survival rate (%)≤60) | + (60≤survival rate (%)<90) | +++ (survival rate (%)≤30) | ++ (30<survival rate (%)≤60) | +++ (survival rate (%)≤30) | +++ (survival rate (%)≤30) | – | – | – | – | – | –
2 | O=C1CCC(N2Cc3c(N/C=C4\C(=O)CCC(c5ccccc5)CC4=O)cccc3C2=O)C(=O)N1 (stereo not drawn) [Compound 124] | – | – | – | – | – | – | 60 to 90 | 30 to 60 | ≤ 30 | 60 to 90 | 60 to 90 | 60 to 90
3 | CCOC(=O)C1CC(=O)C(=CNc2cccc3c2CN(C2CCC(=O)NC2=O)C3=O)C(=O)C1 (stereo not drawn) [Compound 134] | + (60≤survival rate (%)<90) | ++ (30<survival rate (%)≤60) | +++ (survival rate (%)≤30) | + (60≤survival rate (%)<90) | + (60≤survival rate (%)<90) | + (60≤survival rate (%)<90) | – | – | – | – | – | –
4 | O=C1CCC(N2Cc3c(NC=C4C(=O)CC(c5cccs5)CC4=O)cccc3C2=O)C(=O)N1 (stereo not drawn) [Compound 36] | + (60≤survival rate (%)<90) | + (60≤survival rate (%)<90) | ++ (30<survival rate (%)≤60) | + (60≤survival rate (%)<90) | + (60≤survival rate (%)<90) | +++ (survival rate (%)≤30) | – | – | – | – | – | –
5 | O=C1CCC(N2C(=O)c3cccc(NC=C4C(=O)CC(c5ccccc5)CC4=O)c3C2=O)C(=O)N1 (stereo not drawn) [Compound 2] | +++ (survival rate (%)≤30) | + (60≤survival rate (%)<90) | + (60≤survival rate (%)<90) | ++ (30<survival rate (%)≤60) | ++ (30<survival rate (%)≤60) | +++ (survival rate (%)≤30) | – | – | – | – | – | –
6 | O=C1CCC(N2Cc3c(NC(=O)CCC(=O)OCCN4CCN(CCNC=C5C(=O)CC(c6ccccc6)CC5=O)CC4)cccc3C2=O)C(=O)N1 (stereo not drawn) [Compound 56] | + (60≤survival rate (%)<90) | + (60≤survival rate (%)<90) | +++ (survival rate (%)≤30) | + (60≤survival rate (%)<90) | +++ (survival rate (%)≤30) | +++ (survival rate (%)≤30) | – | – | – | – | – | –
7 | O=C1CCC(N2C(=O)c3cccc(OC(=O)OCCOCCN4CCN(CCNC=C5C(=O)CC(c6ccccc6)CC5=O)CC4)c3C2=O)C(=O)N1 (stereo not drawn) [Compound 104] | +++ (survival rate (%)≤30) | ++ (30<survival rate (%)≤60) | +++ (survival rate (%)≤30) | +++ (survival rate (%)≤30) | +++ (survival rate (%)≤30) | +++ (survival rate (%)≤30) | – | – | – | – | – | –
8 | O=C1CCC(N2Cc3c(NC(=O)c4ccccc4NC=C4C(=O)CC(c5ccccc5)CC4=O)cccc3C2=O)C(=O)N1 (stereo not drawn) [Compound 52] | +++ (survival rate (%)≤30) | + (60≤survival rate (%)<90) | ++ (30<survival rate (%)≤60) | +++ (survival rate (%)≤30) | ++ (30<survival rate (%)≤60) | + (60≤survival rate (%)<90) | – | – | – | – | – | –
